From patent US12410133B2, “Crystalline (r)-5-carbamoylpyridin-3-yl-2-methyl-4-(3-(trifluoromethoxy)benzyl)piperazine-1-carboxylate, compositions and methods of use thereof” (Celgene Corporation, priority 2018, dated 2025)
Values after ≈ are worked out from the molar mass of the structure shown.

Test: Form A solubility study in FaSSIF-v2 and FeSSIF-v2 at 37° C.
Format: physicochemical
Conditions: for solubility at 2 h / solubility at 24 h / Final Form: 37° C.; for Final Form: residual solid by XRPD
Experimental: Solubility was evaluated at 2 hr and 24 hr for Form A in FaSSIF-v2 and FeSSIF-v2 at 37° C. Approximately 40 mg of Form A sample was added in 2.0 mL of corresponding bio-medium to form a suspension, followed by shaking at 500 rpm at 37° C. After 2 hr and 24 hr, the supernatants were isolated by centrifugation (7000 rpm for 5 min) followed by filtration through […] PTFE membrane and were tested by HPLC concentration and pH. The residual solids were characterized by XRPD.

C[C@@H]1CN(Cc2cccc(OC(F)(F)F)c2)CCN1C(=O)Oc1cncc(C(N)=O)c1 [Form A, (R)-5-carbamoylpyridin-3-yl-2-methyl-4-(3-(trifluoromethoxy)benzyl)piperazine-1-carboxylate]
solubility at 2 h (FaSSIF-v2, thermodynamic from solid, FaSSIF (pH 6.5), 2 hr, final pH 6.5): 63 µg/mL (≈ 144 µM) | solubility at 24 h (FaSSIF-v2, thermodynamic from solid, FaSSIF (pH 6.5), 24 hr, final pH 6.6): 63 µg/mL (≈ 144 µM) | Form change after solubility evaluation (XRPD patterns) (FaSSIF-v2 and FeSSIF-v2, 37° C., 2 hr and 24 hr): no form change was observed | solubility at 2 h (FeSSIF-v2, thermodynamic from solid, FeSSIF (pH 5.8), 2 hr, final pH 5.9): 1000 µg/mL (≈ 2280 µM) | solubility at 24 h (FeSSIF-v2, thermodynamic from solid, FeSSIF (pH 5.8), 24 hr, final pH 6.0): 1100 µg/mL (≈ 2510 µM) | Final Form (FaSSIF (pH 6.5), 2 hr): Form A | Final Form (FaSSIF (pH 6.5), 24 hr): Form A | Final Form (FeSSIF (pH 5.8), 2 hr): Form A | Final Form (FeSSIF (pH 5.8), 24 hr): Form A
